Reference: BindingDB's records for patent US12398118 (Beijing Tide Pharmaceutical, 2025)

Tests used:
[1] = molecular target: Rho-associated protein kinase 1 (Homo sapiens, UniProt Q13464); experiment: Biological Assay
[2] = molecular target: Rho-associated protein kinase 2 (Homo sapiens, UniProt O75116); experiment: Biological Assay
Experimental: Before the assay, the following working solutions as needed were formulated with corresponding reagents according to the instruction of the kinase detection kit: 1×kinase buffer, 5×STK-S2 substrate working solution (1.5 μM) and 5×ATP working solution (1.5 μM), 5×ROCK2 kinase working solution, 4×Streptavidin-XL665 working solution, and 4×STK-Ab-Cryptate 2 detection solution. Then the assay was performed according to the following procedure.A solution of a compound at a concentration of 10000 nM was prepared with the 1×kinase buffer containing 2.5% DMSO. Gradient dilution of the solution of the compound was performed with the kinase buffer containing DMSO, so as to obtain solutions of a test compound at 9 different concentrations. In addition to wells of test compounds, a positive well (containing all the reagents except the compound) and a negative well (containing all the reagents except the test compound and kinase) were set. Except for the control wells (positive and negative wells), a solution of a test compound (4 μL) was added to each of the reaction wells, and a solution of 2.5% DMSO was added to the control wells. Then the substrate ([…], i.e., 2 μL 5×STK-S2 substrate working solution) was added to each of the reaction wells. The 5×ROCK2 kinase working solution (2 μL, containing 1.4 ng ROCK2 kinase) was added to each of the reaction wells except for the negative well, the volume of which was made up with the 1×kinase buffer (2 μL). The 5×ATP working solution (2 μL) was added to each of the reaction wells, and the mixtures were incubated at room temperature for 2 hours. After the kinase reaction was complete, the 4×Streptavidin-XL665 working solution was added to each of the reaction wells, the solutions were mixed, followed by immediate addition of the 4×STK-Ab-Cryptate 2 detection solution (5 μL), and the mixtures were incubated at room temperature for 1 hour.

Rho-associated protein kinase 2, sequence (O75116 whole entry): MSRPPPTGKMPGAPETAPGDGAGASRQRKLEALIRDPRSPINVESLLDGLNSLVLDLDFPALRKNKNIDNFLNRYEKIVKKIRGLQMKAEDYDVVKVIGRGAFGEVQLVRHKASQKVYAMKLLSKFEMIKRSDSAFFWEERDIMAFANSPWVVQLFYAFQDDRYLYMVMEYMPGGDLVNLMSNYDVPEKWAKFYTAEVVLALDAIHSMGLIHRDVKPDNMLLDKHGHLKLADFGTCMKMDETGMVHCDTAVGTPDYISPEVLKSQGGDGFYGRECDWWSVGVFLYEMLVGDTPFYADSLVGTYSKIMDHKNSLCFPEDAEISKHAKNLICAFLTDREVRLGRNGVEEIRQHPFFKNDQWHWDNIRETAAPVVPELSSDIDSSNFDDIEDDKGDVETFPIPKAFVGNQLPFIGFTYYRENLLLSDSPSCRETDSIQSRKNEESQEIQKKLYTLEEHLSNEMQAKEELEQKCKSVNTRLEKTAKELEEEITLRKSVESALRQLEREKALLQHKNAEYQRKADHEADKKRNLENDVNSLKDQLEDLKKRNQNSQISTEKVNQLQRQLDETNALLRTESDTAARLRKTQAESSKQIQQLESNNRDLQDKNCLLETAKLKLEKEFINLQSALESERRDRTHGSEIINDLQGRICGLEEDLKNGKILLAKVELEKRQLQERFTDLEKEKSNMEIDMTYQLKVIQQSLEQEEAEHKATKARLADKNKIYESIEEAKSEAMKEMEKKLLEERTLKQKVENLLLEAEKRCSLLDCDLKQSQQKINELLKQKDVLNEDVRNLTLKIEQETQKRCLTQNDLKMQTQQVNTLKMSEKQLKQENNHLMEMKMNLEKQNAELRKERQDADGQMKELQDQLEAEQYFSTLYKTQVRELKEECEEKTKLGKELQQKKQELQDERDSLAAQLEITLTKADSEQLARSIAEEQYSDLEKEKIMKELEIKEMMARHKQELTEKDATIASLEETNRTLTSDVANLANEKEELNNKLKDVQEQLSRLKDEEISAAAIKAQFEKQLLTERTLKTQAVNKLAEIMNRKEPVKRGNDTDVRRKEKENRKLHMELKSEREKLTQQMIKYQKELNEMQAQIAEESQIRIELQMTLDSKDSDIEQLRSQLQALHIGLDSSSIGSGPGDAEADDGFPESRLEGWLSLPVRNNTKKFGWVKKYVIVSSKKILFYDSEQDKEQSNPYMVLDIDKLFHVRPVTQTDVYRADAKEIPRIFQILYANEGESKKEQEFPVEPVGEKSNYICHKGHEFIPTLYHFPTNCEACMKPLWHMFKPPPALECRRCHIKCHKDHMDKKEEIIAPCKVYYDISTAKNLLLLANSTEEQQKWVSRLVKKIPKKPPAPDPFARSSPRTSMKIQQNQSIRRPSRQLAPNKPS
Rho-associated protein kinase 1, sequence (Q13464 whole entry): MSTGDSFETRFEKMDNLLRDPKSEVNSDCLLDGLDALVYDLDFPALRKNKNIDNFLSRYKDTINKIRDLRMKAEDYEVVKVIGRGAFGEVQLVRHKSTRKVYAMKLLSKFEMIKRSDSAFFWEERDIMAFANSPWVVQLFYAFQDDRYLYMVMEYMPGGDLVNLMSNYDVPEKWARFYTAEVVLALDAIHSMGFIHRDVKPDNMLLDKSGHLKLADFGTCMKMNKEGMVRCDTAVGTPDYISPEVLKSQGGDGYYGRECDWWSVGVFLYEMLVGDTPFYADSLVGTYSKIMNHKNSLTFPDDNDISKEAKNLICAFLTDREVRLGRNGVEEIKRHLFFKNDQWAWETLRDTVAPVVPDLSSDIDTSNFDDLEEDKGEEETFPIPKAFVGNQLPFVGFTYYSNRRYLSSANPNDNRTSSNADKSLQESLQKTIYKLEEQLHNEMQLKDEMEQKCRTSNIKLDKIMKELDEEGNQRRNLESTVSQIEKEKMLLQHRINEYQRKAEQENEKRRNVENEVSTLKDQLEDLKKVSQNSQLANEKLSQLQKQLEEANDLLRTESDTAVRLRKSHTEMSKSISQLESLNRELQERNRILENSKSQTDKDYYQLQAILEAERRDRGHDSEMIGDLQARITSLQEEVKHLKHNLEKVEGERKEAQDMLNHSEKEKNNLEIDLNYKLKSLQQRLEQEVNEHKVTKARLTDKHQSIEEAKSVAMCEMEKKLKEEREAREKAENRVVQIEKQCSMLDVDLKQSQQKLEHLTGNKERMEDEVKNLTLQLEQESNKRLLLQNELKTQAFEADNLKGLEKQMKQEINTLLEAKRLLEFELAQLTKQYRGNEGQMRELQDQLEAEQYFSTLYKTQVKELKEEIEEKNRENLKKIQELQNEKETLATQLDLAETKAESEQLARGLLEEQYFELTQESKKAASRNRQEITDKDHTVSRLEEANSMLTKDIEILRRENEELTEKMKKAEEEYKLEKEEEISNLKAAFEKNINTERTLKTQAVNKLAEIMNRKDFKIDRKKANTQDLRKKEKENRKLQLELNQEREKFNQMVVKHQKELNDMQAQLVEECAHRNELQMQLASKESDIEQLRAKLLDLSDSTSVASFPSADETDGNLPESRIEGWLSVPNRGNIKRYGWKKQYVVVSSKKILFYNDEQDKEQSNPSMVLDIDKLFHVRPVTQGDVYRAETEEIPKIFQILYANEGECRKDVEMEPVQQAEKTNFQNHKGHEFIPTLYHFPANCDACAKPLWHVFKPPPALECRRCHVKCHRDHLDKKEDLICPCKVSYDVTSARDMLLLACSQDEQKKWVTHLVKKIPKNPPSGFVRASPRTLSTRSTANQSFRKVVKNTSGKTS

Row | SMILES | IC50 [1] [nM] | IC50 [2] [nM]
1 | O=C1NCCc2cc(Nc3nc(-c4cc5c(s4)CCN(C(=O)OCC(F)(F)F)C5)ncc3F)ccc21 [US12398118, Compound C75] | > 10000 | 37
2 | CC(C)(C)OC(=O)N1CCc2sc(-c3ncc(F)c(Nc4ccc5c(=O)[nH]ccc5c4)n3)cc2C1 [US12398118, Compound C28] | > 10000 | 6
3 | CC(C)(C)OC(=O)N1CCc2sc(-c3ncc(F)c(Nc4ccc5c(N)nccc5c4)n3)cc2C1 [US12398118, Compound C45] | > 10000 | 491
4 | CC(C)(C)CC(=O)N1CCc2sc(-c3ncc(F)c(Nc4ccc5c(=O)[nH]ccc5c4)n3)cc2C1 [US12398118, Compound C52] | > 10000 | 28
5 | O=C(OCC(F)(F)F)N1Cc2ccc(-c3ncc(F)c(Nc4ccc5c(=O)[nH]ccc5c4)n3)cc2C1 [US12398118, Compound C72] | > 10000 | 24
6 | CC(OC(=O)N1CCc2sc(-c3ncc(F)c(Nc4ccc5c(c4)CCNC5=O)n3)cc2C1)C(F)(F)F (stereo not drawn) [US12398118, Compound C43] |  | 71
7 | O=C(OC1CCC(F)(F)CC1)N1CCc2cc(-c3ncc(F)c(Nc4ccc5c(=O)[nH]ccc5c4)n3)ccc2C1 [US12398118, Compound C35] | > 10000 | 93
